Data: patent US20150147309A1, “ALLOSTERIC CHAPERONES AND USES THEREOF” (Fondazione Telethon, priority 2012, published 2015)

Experiments:
[1] = molecular target: T1, rhGAA (Homo sapiens, UniProt P10253); experiment: Effect of compounds on rhGAA stability at neutral pH (residual α-glucosidase activity); format: biochemical; conditions: pH 7.0, 37° C., 0.1-10 mM, up to 48 hrs
T1 construct: purchased Genzyme Co, Cambridge, Mass., USA
Protocol: (§1) The standard activity assay of rhGAA was performed in 200 μl by using 5 μg of enzyme at 37° C. in 100 mM sodium acetate pH 4.0 and 20 mM 4NP-Glc. The reaction was started by adding the enzyme; after suitable incubation time (1-2 min) the reaction was blocked by adding 800 μL of 1 M sodium carbonate pH 10.2. Absorbance was measured at 420 nm at room temperature, the extinction coefficient to calculate enzymatic units was 17.2 mM^−1 cm^−1. One enzymatic unit is defined as the amount of enzyme catalyzing the conversion of 1 μmol substrate into product in 1 min, under the indicated conditions.
(§2) The effect of different pHs on the rhGAA stability was measured by preparing reaction mixtures containing 0.75 mg mL^−1 of enzyme in the presence of 50 mM citrate/phosphate (pH 3.0-7.0) at a certain pH. After incubations at 37° C., aliquots were withdrawn at the times indicated and the residual α-glucosidase activity was measured with the standard assay. To test the effect on the pH stability of rhGAA of chemical chaperons and of the other molecules, experiments were performed as described above by adding to the reaction mixtures the amounts of the different compounds indicated in the text.

[2] = molecular target: T2, rh-alpha-Gal A in Fabry disease cell lines (Homo sapiens, UniProt P06280); experiment: Correction by rh-alpha-Gal A in Fabry disease cell lines with chaperone; format: cell-based; conditions: three Fabry disease cell lines
T2 construct: purchased Genzyme Co, Cambridge, Mass., USA
T2 sequence (P06280 32-429): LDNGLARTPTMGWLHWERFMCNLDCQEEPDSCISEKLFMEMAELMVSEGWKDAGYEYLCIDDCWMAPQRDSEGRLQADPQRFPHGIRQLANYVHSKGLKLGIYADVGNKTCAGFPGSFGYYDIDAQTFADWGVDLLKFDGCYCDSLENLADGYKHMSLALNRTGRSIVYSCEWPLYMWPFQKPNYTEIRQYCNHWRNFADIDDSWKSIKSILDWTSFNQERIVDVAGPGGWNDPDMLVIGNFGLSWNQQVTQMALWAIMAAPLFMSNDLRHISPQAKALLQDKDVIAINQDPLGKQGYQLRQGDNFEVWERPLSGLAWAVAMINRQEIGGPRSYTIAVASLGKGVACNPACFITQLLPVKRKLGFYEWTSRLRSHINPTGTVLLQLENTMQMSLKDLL
Protocol: Fibroblasts from PD and Fabry disease patients were derived from skin biopsies after obtaining the informed consent of patients. Normal age-matched control fibroblasts were available in the laboratory of the Department of Pediatrics, Federico II University of Naples. All cell lines were grown at 37° C. with 5% CO2 in Dulbecco's modified Eagle's medium (Invitrogen, Grand Island, N.Y.) and 10% fetal bovine serum (Sigma-Aldrich, St Louis, Mo.), supplemented with 100 U/ml penicillin and […] streptomycin.

[3] = molecular target: T1, rhGAA; experiment: Thermal stability scans of rhGAA (SYPRO Orange); format: binding; conditions: pH 7.4; for Tm of rhGAA in the presence of chaperone: NAC 10 mM, DNJ 0.1 mM
Protocol: Thermal stability scans of rhGAA were performed as described in [Flanagan et al. 2009]. Briefly, 2.5 μg of enzyme were incubated in the absence and in the presence of NAC and DNJ, 10 mM and 0.1 mM, respectively, SYPRO Orange dye, and sodium phosphate 25 mM buffer, 150 mM NaCl, pH 7.4 or sodium acetate 25 mM buffer, 150 mM NaCl, pH 5.2. Thermal stability scans were performed at 1° C./min in the range 25-95° C. in a Real Time LightCycler (Bio-Rad). SYPRO Orange fluorescence was normalized to maximum fluorescence value within each scan to obtain relative fluorescence. Melting temperatures were calculated according to (Niesen et al. 2007).

[4] = molecular target: T1, rhGAA; experiment: Effect on rhGAA enzyme activity (standard activity assay); format: biochemical; conditions: three concentrations (FIG. 4)
Protocol: as §1

[5] = molecular target: T3, rhGAA in PD fibroblasts (Homo sapiens, UniProt P10253); experiment: Correction of GAA activity by rhGAA in PD fibroblasts with chaperone (synergy); format: cell-based; conditions: patient 3 (FIG. 7)
T3 construct: purchased Genzyme Co, Cambridge, Mass., USA
Protocol: To study the rhGAA uptake and correction of GAA activity in PD fibroblasts, the cells were incubated with […] rhGAA for 24 hours, in the absence or in the presence of 10 mM NAC. Untreated cells or were used for comparison. After the incubation the cells were harvested by trypsinization and disrupted by 5 cycles of freezing and thawing.
GAA activity was assayed by using the fluorogenic substrate 4-methylumbelliferyl-alpha-D-glucopyranoside (Sigma-Aldrich) according to a published procedure [Porto et al, 2009]. Briefly, 25 micrograms of protein were incubated with the fluorogenic substrate (2 mM) in 0.2 M acetate buffer, pH 4.0, for 60 minutes in incubation mixtures of 100 μl. The reaction was stopped by adding 700 μl of glycine-carbonate buffer, pH 10.7. Fluorescence was read at 365 nm (excitation) and 450 nm (emission) on a Turner Biosystems Modulus fluorometer. Protein concentration in cell homogenates was measured by the Bradford assay (Biorad, Hercules, Calif.).
To study GAA immunoreactive material, fibroblast extracts were subjected to western blot analysis. The cells were harvested, washed in phosphate-buffered saline, resuspended in water, and disrupted by five cycles of freeze-thawing. Equal amounts (20 μg protein) of fibroblast extracts were subjected to sodium dodecyl sulfate polyacrylamide gel electrophoresis and proteins were transferred to PVD membrane (Millipore, Billerica, Mass.). An anti-human GAA antiserum was used as primary antibody to detect GAA polypeptides; to detect β-actin, a monoclonal mouse antibody was used Immunoreactive proteins were detected by chemiluminescence (ECL, Amersham, Freiburg, Germany)
To study the distribution of AlexaFluor546 labeleld GAA, PD fibroblasts grown on coverslips were fixed using methanol, permeabilized using 0.1% saponin and locked with 0.01% saponin, 1% fetal bovine serum diluted in phosphate-buffered saline for 1 hour. The cells were incubated with the primary antibodies, with secondary antibodies in blocking solution and then mounted with vectashield mounting medium (Vector Laboratories, Burlingame, Calif.). Samples were examined with a Zeiss LSM 5 10 laser scanning confocal microscope. Authors used Argon/2 (458, 477, 488, and 514 nanometers) and HeNe1 (543 nanometers) excitation lasers, which were switched-on separately to reduce crosstalk of the two fluorochromes. The green and the red emissions were separated by a dichroic splitter (FT 560) and filtered (515-540-nm bandpass filter for green and >610-nm long pass filter for red emission). A threshold was applied to the images to exclude ˜99% of the signal found in control images.

[6] = Effect of pH on rhGAA stability; format: physicochemical
Protocol: as §1, §2

OCCS [2-mercapto-ethanol, reference compound]
stabilization of rhGAA at neutral pH [1]: did not prevent enzyme inactivation

N[C@@H](CS)C(=O)O [Cys, reference compound]
stabilization of rhGAA at neutral pH [1]: did not prevent enzyme inactivation

OC[C@H]1NC[C@H](O)[C@@H](O)[C@H]1O [DGJ, 1-deoxy-galactonojiirimycin, reference compound]
enhancement of correction by rh-alpha-Gal A [2]: largely enhanced

OC[C@H]1NC[C@H](O)[C@@H](O)[C@@H]1O [DNJ, 1-deoxy-nojiirimycin, reference compound]
Tm of rhGAA in the presence of chaperone [3]: 65.9±0.3 °C

NCC(=O)O [Gly, reference compound]
stabilization of rhGAA at neutral pH [1]: did not prevent enzyme inactivation

CC(=O)NCC(=O)O [NAG, N-acetyl glycine]
stabilization of rhGAA at neutral pH [1]: remarkable stabilization | effect on the activity of the enzyme (rhGAA) [4]: no effect

CC(=O)N[C@@H](CO)C(=O)O [NAS, N-acetyl serine]
stabilization of rhGAA at neutral pH [1]: remarkable stabilization | effect on the activity of the enzyme (rhGAA) [4]: no effect

CCCCN1C[C@H](O)[C@@H](O)[C@H](O)[C@H]1CO [NB-DNJ, N-butyl-deoxynojirimycin, reference compound]
Tm of rhGAA in the presence of chaperone [3]: 65.9±0.3 °C

N[C@@H](CO)C(=O)O [Ser, reference compound]
stabilization of rhGAA at neutral pH [1]: did not prevent enzyme inactivation

O=C(O[C@@H]1Cc2c(O)cc(O)cc2O[C@@H]1c1cc(O)c(O)c(O)c1)c1cc(O)c(O)c(O)c1 [epigallo chatechingallate, epigallo catechingallate, reference compound]
enhancement of rhGAA in PD cultured fibroblasts [5]: did not enhance

Oc1ccc(C=Cc2cc(O)cc(O)c2)cc1 [resveratrol, reference compound]
enhancement of rhGAA in PD cultured fibroblasts [5]: did not enhance

rhGAA: recombinant human GAA (alglucosidase, Myozyme) from Genzyme, used for enzyme replacement therapy
rhGAA residual activity after 4 hours ([6]; pH 3.0 or 7.0, 37° C., 4 hours): approximately 50% | rhGAA residual activity after 16 hours ([6]; pH 3.0 or 7.0, 37° C., 16 hours): less than 10% | rhGAA stability at pH 5.0 ([6]; pH 5.0, 37° C., up to 24 hours): stable | Tm of rhGAA in the absence of chaperone [3]: 50.2±0.1 °C
